Source: patent publication US9775831B2, “Combinations comprising biphenyl derivatives for use in the treatment of HCV” (BRISTOL-MYERS SQUIBB COMPANY, priority 2013, dated 2017)

Test system: genotype-1a variant with glutamine 30 changed to glutamate in the NS5A protein
Assay: HCV replicon cell-based assay, NS5A synergy with BMS-790052
Settings: genotype 1a Q→E variant; test compound titrated in combination with NS5A-targeting compound (BMS-790052 fixed at 200 nM)
Source text: The NS5A synergistic inhibitory effect of test compounds can be determined using various amounts of an NS5A-targeting compound with titration of a second compound of interest. […] In one embodiment, the HCV genotype strain can be genotype 1a containing a change at amino acid 30 of the NS5A protein consisting of glutamine to glutamate. The test compound can be chosen from compounds listed above or from others present in the literature.

| Compound | Fold Synergistic (1a-QE) [Fold] |
| --- | --- |
| CC(C)(C)NC(=O)C(c1ncc(-c2ccc(-c3ccc(-c4cnc(C(C(=O)NC(C)(C)C)C(C)(C)C)[nH]4)cc3)cc2)[nH]1)C(C)(C)C (stereo not shown) [Example B1] | >100 |
| CC(C)(C)C(C(=O)Nc1cccc(Cl)c1)c1ncc(-c2ccc(-c3ccc(-c4cnc(C(C(=O)Nc5cccc(Cl)c5)C(C)(C)C)[nH]4)cc3)cc2)[nH]1 (stereo not shown) [Example B2] | <10 |
| CCN(CC)C(=O)C(c1ncc(-c2ccc(-c3ccc(-c4cnc(C(C(=O)N(CC)CC)C(C)(C)C)[nH]4)cc3)cc2)[nH]1)C(C)(C)C (stereo not shown) [Example B3] | >10 |
| CC(C)(C)C(C(=O)N1CCCC1)c1ncc(-c2ccc(-c3ccc(-c4cnc(C(C(=O)N5CCCC5)C(C)(C)C)[nH]4)cc3)cc2)[nH]1 (stereo not shown) [Example B4] | <10 |
| CC(C)(C)C(C(=O)NC1CCCCC1)c1ncc(-c2ccc(-c3ccc(-c4cnc(C(C(=O)NC5CCCCC5)C(C)(C)C)[nH]4)cc3)cc2)[nH]1 (stereo not shown) [Example B5] | <10 |
| COC(=O)[C@@H](NC(=O)C[C@@H](CCC(F)(F)F)c1ncc(-c2ccc(-c3ccc(-c4cnc([C@H](CCC(F)(F)F)CC(=O)N[C@H](C(=O)OC)C(C)C)[nH]4)cc3)cc2)[nH]1)C(C)C [Example MD-1] | >10 |
| O=C(C[C@@H](CCC(F)(F)F)c1ncc(-c2ccc(-c3ccc(-c4cnc([C@H](CCC(F)(F)F)CC(=O)N5CCC(F)CC5)[nH]4)cc3)cc2)[nH]1)N1CCC(F)CC1 [Example MD-2] | >100 |
| CC(C)CNC(=O)C[C@@H](CCC(F)(F)F)c1ncc(-c2ccc(-c3ccc(-c4cnc([C@H](CCC(F)(F)F)CC(=O)NCC(C)C)[nH]4)cc3)cc2)[nH]1 [Example MD-3] | >10 |
| CC(C)CNC(=O)C[C@@H](CCC(F)(F)F)c1ncc(-c2ccc(-c3ccc(-c4cnc([C@H](CCC(F)(F)F)CC(=O)O)[nH]4)cc3)cc2)[nH]1 [Example MD-4] | <10 |
| CCO[C@H](CC(=O)N(NC(=O)OC)C(C)C)c1ncc(-c2ccc(-c3ccc(-c4cnc([C@@H](CC(=O)N(NC(=O)OC)C(C)C)OCC)[nH]4)cc3)cc2)[nH]1 [Example MD-5] | >10 |
| CCO[C@H](CC(=O)NCC(C)C)c1nc(-c2ccc(-c3ccc(-c4c[nH]c([C@@H](CC(=O)NCC(C)C)OCC)n4)cc3)cc2)c[nH]1 [Example MD-6] | >10 |
| CC(C)CNC(=O)[C@@H]1OC(C)(C)O[C@H]1c1ncc(-c2ccc(-c3ccc(-c4cnc([C@@H]5OC(C)(C)O[C@H]5C(=O)NCC(C)C)[nH]4)cc3)cc2)[nH]1 [Example MD-7] | <10 |
| CC1(C)O[C@@H](C(N)=O)[C@H](c2ncc(-c3ccc(-c4ccc(-c5cnc([C@@H]6OC(C)(C)O[C@H]6C(N)=O)[nH]5)cc4)cc3)[nH]2)O1 [Example MD-9] | <10 |
| CC(C)CNC(=O)C[C@@H](C)c1nc(-c2ccc(-c3ccc(-c4c[nH]c([C@H](C)CC(=O)NCC(C)C)n4)cc3)cc2)c[nH]1 [Example MD-11] | >100 |
| C[C@H](CC(=O)N1CCC(F)(F)CC1)c1nc(-c2ccc(-c3ccc(-c4c[nH]c([C@H](C)CC(=O)N5CCC(F)(F)CC5)n4)cc3)cc2)c[nH]1 [Example MD-13] | >100 |
| CCOC(=O)[C@@H]1OCO[C@H]1c1ncc(-c2ccc(-c3ccc(-c4cnc([C@@H]5OCO[C@H]5C(=O)OCC)[nH]4)cc3)cc2)[nH]1 [Example MD-15] | <10 |
| CC(C)[C@H](CC(=O)NCC(C)(C)C)c1ncc(-c2ccc(-c3ccc(-c4cnc([C@@H](CC(=O)NCC(C)(C)C)C(C)C)[nH]4)cc3)cc2)[nH]1 [Example MD-18] | >10 |
| CC(C)[C@H](CC(=O)NCc1ccccc1Cl)c1ncc(-c2ccc(-c3ccc(-c4cnc([C@@H](CC(=O)NCc5ccccc5Cl)C(C)C)[nH]4)cc3)cc2)[nH]1 [Example MD-19] | >100 |
| CCOCC1(CNC(=O)C[C@H](c2ncc(-c3ccc(-c4ccc(-c5cnc([C@@H](CC(=O)NCC6(COCC)CC6)C(C)C)[nH]5)cc4)cc3)[nH]2)C(C)C)CC1 [Example MD-20] | >10 |
| C[C@@H]1CN(C(=O)C[C@@H](C)c2ncc(-c3ccc(-c4ccc(-c5cnc([C@H](C)CC(=O)N6C[C@@H](C)O[C@@H](C)C6)[nH]5)cc4)cc3)[nH]2)C[C@H](C)O1 [Example MD-36] | >10 |
| C[C@H](CC(=O)NCC1CC1)c1ncc(-c2ccc(-c3ccc(-c4cnc([C@H](C)CC(=O)NCC5CC5)[nH]4)cc3)cc2)[nH]1 [Example MD-38] | >100 |
| CC(C)[C@H](CC(=O)NCC(C)(C)O)c1ncc(-c2ccc(-c3ccc(-c4cnc([C@@H](CC(=O)NCC(C)(C)O)C(C)C)[nH]4)cc3)cc2)[nH]1 [Example MD-41] | >10 |

| Compound | Fold Synergistic (1a-QE) [Fold] |
| --- | --- |
| CC(C)(C)CNC(=O)C[C@@H](CCC(F)(F)F)c1ncc(-c2ccc(-c3ccc(-c4cnc([C@H](CCC(F)(F)F)CC(=O)NCC(C)(C)C)[nH]4)cc3)cc2)[nH]1 [Example MD-55] | <10 |
| CC(C)N(C(=O)C[C@@H](CCC(F)(F)F)c1ncc(-c2ccc(-c3ccc(-c4cnc([C@H](CCC(F)(F)F)CC(=O)N(C(C)C)C5CC5)[nH]4)cc3)cc2)[nH]1)C1CC1 [Example MD-56] | <10 |
| CC(C)NC(=O)C[C@@H](CCC(F)(F)F)c1ncc(-c2ccc(-c3ccc(-c4cnc([C@H](CCC(F)(F)F)CC(=O)N(C(C)C)C5CC5)[nH]4)cc3)cc2)[nH]1 [Example MD-57] | >10 |
| COC(=O)NN(C(=O)[C@@H]1OC(C)(C)O[C@H]1c1ncc(-c2ccc(-c3ccc(-c4cnc([C@@H]5OC(C)(C)O[C@H]5C(=O)N(NC(=O)OC)C(C)C)[nH]4)cc3)cc2)[nH]1)C(C)C [MD-8] | <10 |
| CC1(C)O[C@@H](C(N)=O)[C@H](c2ncc(-c3ccc(-c4ccc(-c5coc([C@@H]6OC(C)(C)O[C@H]6C(N)=O)n5)cc4)cc3)[nH]2)O1 [MD-10] | <10 |
| COC(=O)NN(C(=O)C[C@@H](C)c1nc(-c2ccc(-c3ccc(-c4c[nH]c([C@H](C)CC(=O)N(NC(=O)OC)C(C)C)n4)cc3)cc2)c[nH]1)C(C)C [MD-12] | >10 |
| CC(C)CNC(=O)[C@@H]1OCO[C@H]1c1ncc(-c2ccc(-c3ccc(-c4cnc([C@@H]5OCO[C@H]5C(=O)NCC(C)C)[nH]4)cc3)cc2)[nH]1 [MD-14] | <10 |
| COC(=O)NN(C(=O)[C@@H]1OCO[C@H]1c1ncc(-c2ccc(-c3ccc(-c4cnc([C@@H]5OCO[C@H]5C(=O)N(NC(=O)OC)C(C)C)[nH]4)cc3)cc2)[nH]1)C(C)C [MD-17] | <10 |
| CC(C)[C@H](CC(=O)NC[C@@H]1CC[C@H]2C[C@@H]1C2(C)C)c1ncc(-c2ccc(-c3ccc(-c4cnc([C@@H](CC(=O)NC[C@@H]5CC[C@H]6C[C@@H]5C6(C)C)C(C)C)[nH]4)cc3)cc2)[nH]1 [MD-21] | >100 |
| CC(C)[C@H](CC(=O)NCC12CC3CC(CC(C3)C1)C2)c1ncc(-c2ccc(-c3ccc(-c4cnc([C@@H](CC(=O)NCC56CC7CC(CC(C7)C5)C6)C(C)C)[nH]4)cc3)cc2)[nH]1 [MD-22] | >100 |
| CC(C)[C@H](CC(=O)NCC1(c2ccccc2)CCCCC1)c1ncc(-c2ccc(-c3ccc(-c4cnc([C@@H](CC(=O)NCC5(c6ccccc6)CCCCC5)C(C)C)[nH]4)cc3)cc2)[nH]1 [MD-23] | >100 |
| CCN(CC)C(=O)CN(C)C(=O)C[C@H](c1ncc(-c2ccc(-c3ccc(-c4cnc([C@@H](CC(=O)N(C)CC(=O)N(CC)CC)C(C)C)[nH]4)cc3)cc2)[nH]1)C(C)C [MD-24] | >10 |
| CC(C)[C@H](CC(=O)N(C)CC(=O)NC(C)(C)C)c1ncc(-c2ccc(-c3ccc(-c4cnc([C@@H](CC(=O)N(C)CC(=O)NC(C)(C)C)C(C)C)[nH]4)cc3)cc2)[nH]1 [MD-25] | >10 |
| CCCCN(C(=O)C[C@H](c1ncc(-c2ccc(-c3ccc(-c4cnc([C@@H](CC(=O)N(CCCC)C(C)C)C(C)C)[nH]4)cc3)cc2)[nH]1)C(C)C)C(C)C [MD-26] | >10 |
| CC(C)[C@H](CC(=O)N(CCN1CCOC1=O)CC(C)(C)C)c1ncc(-c2ccc(-c3ccc(-c4cnc([C@@H](CC(=O)N(CCN5CCOC5=O)CC(C)(C)C)C(C)C)[nH]4)cc3)cc2)[nH]1 [MD-27] | >10 |
| CC(C)[C@H](CC(=O)NCC(C)(c1ccccc1)c1ccccc1)c1ncc(-c2ccc(-c3ccc(-c4cnc([C@@H](CC(=O)NCC(C)(c5ccccc5)c5ccccc5)C(C)C)[nH]4)cc3)cc2)[nH]1 [MD-28] | >100 |
| CC(C)[C@H](CC(=O)N1CCN(c2ccccc2)C(=O)C1)c1ncc(-c2ccc(-c3ccc(-c4cnc([C@@H](CC(=O)N5CCN(c6ccccc6)C(=O)C5)C(C)C)[nH]4)cc3)cc2)[nH]1 [MD-29] | <10 |
| CC(C)[C@H](CC(=O)N(C)CC(=O)N(C)C)c1ncc(-c2ccc(-c3ccc(-c4cnc([C@@H](CC(=O)N(C)CC(=O)N(C)C)C(C)C)[nH]4)cc3)cc2)[nH]1 [MD-30] | <10 |
| CC(C)[C@H](CC(=O)NC1(C#N)CC1)c1ncc(-c2ccc(-c3ccc(-c4cnc([C@@H](CC(=O)NC5(C#N)CC5)C(C)C)[nH]4)cc3)cc2)[nH]1 [MD-31] | <10 |
| CC(C)[C@H](CC(=O)NCC1(c2ccc(F)cc2)CCCC1)c1ncc(-c2ccc(-c3ccc(-c4cnc([C@@H](CC(=O)NCC5(c6ccc(F)cc6)CCCC5)C(C)C)[nH]4)cc3)cc2)[nH]1 [MD-32] | >100 |
| CC(C)[C@H](CC(=O)NC1(C#N)CC1)c1ncc(-c2ccc(-c3ccc(-c4cnc([C@@H](CC(=O)NC5(C(N)=O)CC5)C(C)C)[nH]4)cc3)cc2)[nH]1 [MD-33] | <10 |
